Compound	melting point [°C]
COc1ccn2nc(-c3ccccc3)c(-c3ccc(=O)[nH]n3)c2c1 [Example 1, 5-methoxy-3-(3-oxo-2,3-dihydropyridazin-6-yl)-2-phenylpyrazolo[1,5-a]-pyridine]	245.5 to 247
CC(C)n1nc(-c2c(-c3ccccc3)nn3ccc(OCCN4CCOCC4)cc23)ccc1=O [Example 6, 5-[2-(4-morpholinyl)ethoxy]-3-(3-oxo-2-isopropyl-2,3-dihydropyridazin-6-yl)-2-phenylpyrazolo[1,5-a]pyridine]	160 to 162
COc1ccc(S(=O)(=O)Oc2ccn3nc(-c4ccccc4)c(-c4ccc(=O)n(C(C)C)n4)c3c2)cc1 [Example 7, 5-(4-methoxyphenylsulfonyl)oxy-3-(3-oxo-2-isopropyl-2,3-dihydropyridazin-6-yl)-2-phenylpyrazolo[1,5-a]pyridine]	155 to 157
CC(C)n1nc(-c2c(-c3ccccc3)nn3ccc(OCCN4CCCCC4)cc23)ccc1=O [Example 16, 5-[2-(1-Piperidinyl)ethoxy]-3-(3-oxo-2-isopropyl-2,3-dihydropyridazin-6-yl)-2-phenylpyrazolo[1,5-a]pyridine]	144 to 144.5
CC(C)n1nc(-c2c(-c3ccccc3)nn3ccc(OCCN4CCCC4)cc23)ccc1=O [Example 17, 5-[2-(1-Pyrrolidinyl)ethoxy]-3-(3-oxo-2-isopropyl-2,3-dihydropyridazin-6-yl)-2-phenylpyrazolo[1,5-a]pyridine]	149 to 150
CC(C)n1nc(-c2c(-c3ccccc3)nn3ccc(OCCN4[C@H](C)COC[C@@H]4C)cc23)ccc1=O [Example 18, 5-[2-{(3R,5S)-3,5-Dimethyl-4-morpholinyl}ethoxy]-3-(3-oxo-2-isopropyl-2,3-dihydropyridazin-6-yl)-2-phenylpyrazolo[1,5-a]pyridine]	145 to 146
CC(C)n1nc(-c2c(-c3ccccc3)nn3ccc(OCCC4CCCCC4)cc23)ccc1=O [Example 23, 5-(2-Cyclohexylethoxy)-3-(3-oxo-2-isopropyl-2,3-dihydropyridazin-6-yl)-2-phenylpyrazolo[1,5-a]pyridine]	146 to 147
CC(C)n1nc(-c2c(-c3ccccc3)nn3ccc(OCCN4C[C@@H](C)O[C@@H](C)C4)cc23)ccc1=O [Example 24, 5-[2-{(2R,6S)-2,6-Dimethyl-4-morpholinyl}ethoxy]-3-(3-oxo-2-isopropyl-2,3-dihydropyridazin-6-yl)-2-phenylpyrazolo[1,5-a]pyridine]	157.5 to 158
CCN(CC)CCOc1ccn2nc(-c3ccccc3)c(-c3ccc(=O)n(C(C)C)n3)c2c1 [Example 25, 5-[2-(Diethylamino)ethoxy]-3-(3-oxo-2-isopropyl-2,3-dihydropyridazin-6-yl)-2-phenylpyrazolo[1,5-a]pyridine]	92.5 to 94.5
CC(C)n1nc(-c2c(-c3ccccc3)nn3ccc(OCCN4CCCC4=O)cc23)ccc1=O [Example 28, 5-[2-(2-Oxo-1-pyrrolidinyl)ethoxy]-3-(3-oxo-2-isopropyl-2,3-dihydropyridazin-6-yl)-2-phenylpyrazolo [1,5-a]pyridine]	162 to 163
CC(C)n1nc(-c2c(-c3ccccc3)nn3ccc(OC4CCN(C(=O)OC(C)(C)C)CC4)cc23)ccc1=O [Example 29, tert-Butyl 4-{[3-(3-oxo-2-isopropyl-2,3-dihydropyridazin-6-yl)-2-phenylpyrazolo[1,5-a]pyridin-5-yl]oxy}-1-piperidinecarboxylate]	176 to 179
CC(C)n1nc(-c2c(-c3ccccc3)nn3ccc(OCCC4CCCC4)cc23)ccc1=O [Example 33, 5-(2-cyclopentylethoxy)-3-(3-oxo-2-isopropyl-2,3-dihydropyridazin-6-yl)-2-phenylpyrazolo[1,5-a]pyridine]	159.5 to 160.5

Further lines, results first:

melting point [°C]	Compound
159 to 160	CC(C)n1nc(-c2c(-c3ccccc3)nn3ccc(OCCN4CC4)cc23)ccc1=O
154.5 to 155.5	CC(C)n1nc(-c2c(-c3ccccc3)nn3ccc(OCCc4ccccc4)cc23)ccc1=O [Example 9, 5-Phenethyloxy-3-(3-oxo-2-isopropyl-2,3-dihydropyridazin-6-yl)-2-phenylpyrazolo[1,5-a]pyridine]
162 to 163	CC(C)Oc1ccn2nc(-c3ccccc3)c(-c3ccc(=O)n(C(C)C)n3)c2c1 [Example 10, 5-Isopropoxy-3-(3-oxo-2-isopropyl-2,3-dihydropyridazin-6-yl)-2-phenylpyrazolo[1,5-a]pyridine]
150 to 151	CC(C)n1nc(-c2c(-c3ccccc3)nn3ccc(OCc4ccccn4)cc23)ccc1=O [Example 12, 5-(2-Pyridinylmethoxy)-3-(3-oxo-2-isopropyl-2,3-dihydropyridazin-6-yl)-2-phenylpyrazolo[1,5-a]pyridine]
125 to 126	CC(C)n1nc(-c2c(-c3ccccc3)nn3ccc(OCCCN(C)C)cc23)ccc1=O [Example 15, 5-(3-Dimethylaminopropoxy)-3-(3-oxo-2-isopropyl-2,3-dihydropyridazin-6-yl)-2-phenylpyrazolo[1,5-a]pyridine]
218 to 219.5	CC(C)n1nc(-c2c(-c3ccccc3)nn3ccc(OCc4ccncc4)cc23)ccc1=O [Example 19, 5-(4-Pyridinylmethoxy)-3-(3-oxo-2-isopropyl-2,3-dihydropyridazin-6-yl)-2-phenylpyrazolo[1,5-a]pyridine]
145 to 146	CC(C)n1nc(-c2c(-c3ccccc3)nn3ccc(OCc4cccnc4)cc23)ccc1=O [Example 20, 5-(3-Pyridinylmethoxy)-3-(3-oxo-2-isopropyl-2,3-dihydropyridazin-6-yl)-2-phenylpyrazolo[1,5-a]pyridine]
161.5 to 162.5	CCCOc1ccn2nc(-c3ccccc3)c(-c3ccc(=O)n(C(C)C)n3)c2c1 [Example 21, 5-Propoxy-3-(3-oxo-2-isopropyl-2,3-dihydropyridazin-6-yl)-2-phenylpyrazolo[1,5-a]pyridine]
163 to 163.5	CC(C)CCOc1ccn2nc(-c3ccccc3)c(-c3ccc(=O)n(C(C)C)n3)c2c1 [Example 22, 5-Isopentyloxy-3-(3-oxo-2-isopropyl-2,3-dihydropyridazin-6-yl)-2-phenylpyrazolo[1,5-a]pyridine]
181 to 182	CCOc1ccn2nc(-c3ccccc3)c(-c3ccc(=O)n(C(C)C)n3)c2c1 [Example 26, 5-Ethoxy-3-(3-oxo-2-isopropyl-2,3-dihydropyridazin-6-yl)-2-phenylpyrazolo[1,5-a]pyridine]
172.5 to 173.5	CC(=O)COc1ccn2nc(-c3ccccc3)c(-c3ccc(=O)n(C(C)C)n3)c2c1 [Example 27, 5-(2-Oxopropoxy)-3-(3-oxo-2-isopropyl-2,3-dihydropyridazin-6-yl)-2-phenylpyrazolo[1,5-a]pyridine]
174 to 174.5	CC(C)n1nc(-c2c(-c3ccccc3)nn3ccc(OCC(=O)OCc4ccccc4)cc23)ccc1=O [Example 32, Benzyl {[3-(3-oxo-2-isopropyl-2,3-dihydropyridazin-6-yl)-2-phenylpyrazolo[1,5-a]pyridin-5-yl]oxy}acetate]
218.5 to 219.5	CC(C)n1nc(-c2c(-c3ccccc3)nn3ccc(Oc4ccncc4)cc23)ccc1=O [Example 35, 5-(4-Pyridinyloxy)-3-(3-oxo-2-isopropyl-2,3-dihydropyridazin-6-yl)-2-phenylpyrazolo[1,5-a]pyridine]
